# Patent US8901138B2, “Sulfoximine substituted quinazolines for pharmaceutical compositions” (Boehringer Ingelheim International GmbH, priority 2012, dated 2014)
# How the values were obtained:
# MNK2a = target: T1, MNK2a (Homo sapiens, UniProt Q9HBH9); experiment: MNK2a in vitro kinase assay (assay 1), ADP-Glo; assay type: biochemical; details: preactivated GST-MNK2a, 20 μM ATP, read-out: MNK2 IC50
# T1 construct: made in house
# Experimental: A. MNK2a In Vitro Kinase Assay (Assay 1)
# ASSAY SETUP: The inhibition of kinase activity of MNK2a was assessed using preactivated GST-MNK2a. The white, 384-well OptiPlate F plates were purchased from Perkin Elmer. The ADP-Glo Kinase Assay (including ultra pure ATP) was purchased from Promega (V9103). Activated MNK2a was obtained as described in WO2011/104340. The unlabeled eIF4E peptide (NH2-[…]—CONH2) (SEQ ID NO: 1), differing from Seq. ID No. 5 of WO 2011/104340 by the C-terminal —CONH2 group, was purchased from Thermo Fisher Scientific. All other materials were of highest grade commercially available. Compounds are tested in either serial dilutions or single dose concentrations. The compound stock solutions are 10 mM in 100% DMSO The serial compound dilutions are prepared in 100% DMSO followed by 1:27.3 intermediate dilution in assay buffer. The final DMSO concentration in assay will be <3%. In the 384-well plates 3 μl of test compound from the intermediate dilution is mixed with 4 μl of the activated MNK2 enzyme (final concentration of 10 nM) and 4 μl of the peptide (final concentration of 25 μM)/ultra pure ATP (final concentration of 20 μM), all dissolved in assay buffer. This step is followed by an incubation time of 90 min, then 10 μl of ADP Glo reagent are added, followed by 40 min of incubation. Then 20 μl of kinase detection reagent are admixed. The plates are sealed and after an incubation period of 30 min, the luminescence signal is measured in an Envision reader to determine the amount of produced ADP. All incubation steps are performed at room temperature. The assay buffer consists of 20 mM HEPES, 2 mM DTT, 0.01% BSA, 20 mM MgCl2 and 0.1% Pluronic F-127.
# Each assay microtiter plate contains wells with vehicle controls instead of compound (1% DMSO in water) as reference for the high signal (100% CTL, high signal), and wells containing a potent MNK2 inhibitor (final 20 μM, 1% DMSO) as reference for low signal (0% CTL, low signal).
# The luminescent signal generated is proportional to the ADP concentration produced and is correlated with activated MNK2 activity. The analysis of the data is performed by the calculation of the percentage of ATP consumption of activated MNK2 in the presence of the test compound compared to the consumption of ATP in the presence of activated MNK2 without compound. (RLU(sample)−RLU(low control))*100/(RLU(high value)−RLU(low control)) [RLU=relative luminescence units]
# An inhibitor of the MNK2 enzyme will give values between 100% CTL (no inhibition) and 0% CTL (complete inhibition). Values of more than 100% CTL are normally related to compound/sample specific physico-chemical properties (e.g. solubility, light absorbance, fluorescence).
# IC50 values based on dose response curves are calculated with the AssayExplorer software.
# MNK1a = MNK1a (Homo sapiens, UniProt Q9BUB5); experiment: MNK1 in vitro kinase assay (assay 2), Z'-LYTE; assay type: biochemical; details: for IC50: pre-activated GST-MNK1a; for inhibition at 1 µM: compound concentration of 1 μM
# Chain of MNK1a (Q9BUB5 1-424 isoform Q9BUB5-2): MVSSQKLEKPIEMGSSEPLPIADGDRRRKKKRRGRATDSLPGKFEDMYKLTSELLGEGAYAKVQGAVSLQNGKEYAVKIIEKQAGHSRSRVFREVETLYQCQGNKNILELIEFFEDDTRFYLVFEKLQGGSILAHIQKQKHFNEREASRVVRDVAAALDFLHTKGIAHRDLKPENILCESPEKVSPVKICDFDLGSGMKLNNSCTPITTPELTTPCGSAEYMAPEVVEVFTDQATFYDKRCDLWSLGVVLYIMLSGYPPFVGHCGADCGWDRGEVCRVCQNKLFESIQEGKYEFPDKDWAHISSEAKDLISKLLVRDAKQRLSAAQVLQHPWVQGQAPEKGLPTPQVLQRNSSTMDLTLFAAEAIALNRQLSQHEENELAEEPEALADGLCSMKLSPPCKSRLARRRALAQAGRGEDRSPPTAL
# From the text: B. MNK1 In Vitro Kinase Assay (Assay 2)
# MNK1 Data can be obtained from the MNK1 Z′-LYTE® assay. The MNK1 Z′-LYTE® screening protocol and assay conditions are also described on www.invitrogen.com.
# The assay is described as follows:
# The Z′-LYTE® biochemical assay employs a fluorescence-based, coupled-enzyme format and is based on the differential sensitivity of phosphorylated and non-phosphorylated peptides to proteolytic cleavage. The peptide substrate is labeled with two fluorophores—one at each end—that make up a FRET pair.
# In the primary reaction, the kinase transfers the gamma-phosphate of ATP to a single tyrosine, serine or threonine residue in a synthetic FRET-peptide. In the secondary reaction, a site-specific protease recognizes and cleaves non-phosphorylated FRET-peptides. Phosphorylation of FRET-peptides suppresses cleavage by the Development Reagent. Cleavage disrupts FRET between the donor (i.e., coumarin) and acceptor (i.e., fluorescein) fluorophores on the FRET-peptide, whereas uncleaved, phosphorylated FRET-peptides maintain FRET. A ratiometric method, which calculates the ratio (the Emission Ratio) of donor emission to acceptor emission after excitation of the donor fluorophore at 400 nm, is used to quantitate reaction progress, as shown in the equation below. Emission Ratio=Coumarin Emission(445 nm)/Fluorescein Emission(520 nm)
# ASSAY SETUP: The inhibition of kinase activity of MNK1a was assessed using pre-activated GST-MNK1a. The 2×MKNK1 (MNK1) mixture is prepared in 50 mM HEPES pH 7.5, 0.01% BRIJ-35, 10 mM MgCl2, 4 mM MnCl2, 1 mM EGTA, 2 mM DTT. The final 10 μL Kinase Reaction consists of 13.5-54 ng MKNK1 (MNK1) and 2 μM Ser/Thr 07 in 50 mM HEPES pH 7.5, 0.01% BRIJ-35, 10 mM MgCl2, 2 mM MnCl2, 1 mM EGTA, 1 mM DTT. After the 1 hour Kinase Reaction incubation, 5 μL of a 1:32768 dilution of Development Reagent A is added.
# The Test Compounds are screened in 1% DMSO (final) in the well.
# All Peptide/Kinase Mixtures are diluted to a 2× working concentration in the MNK1 Kinase Buffer.
# All ATP Solutions are diluted to a 4× working concentration in Kinase Buffer (50 mM HEPES pH 7.5, 0.01% BRIJ-35, 10 mM MgCl2, 1 mM EGTA).
# Development Reagent Solution:
# The Development Reagent is diluted in Development Buffer
# Bar-coded Corning, low volume NBS, 384-well plate (Corning Cat. #3676)
# 1. 2.5 μL-4× Test Compound
# 2. 5 μL-2× Peptide/Kinase Mixture
# 5. 60-minute Kinase Reaction incubation at room temperature
# 6. 5 μL-Development Reagent Solution
# 8. 60-minute Development Reaction incubation at room temperature
# 9. Read on fluorescence plate reader and analyze the data
# The following equations are used for each set of data points: […]
# Correction for Background Fluorescence: FSample−FITCFl Ctl
# Emission Ratio (using values corrected for background fluorescence):Coumarin
# Emission (445 nm)/Fluorescein Emission (520 nm)
# % Phosphorylation (% Phos): 1−((Emission Ratio×F100%)−C100%)/((C0%−C100%)+[Emission Ratio×(F100%−F0%)])*100 % Inhibition: 1−(% PhosSample/% Phos0% Inhibition Ctl)*100 FI=Fluorescence Intensity C100%=Average Coumarin emission signal of the 100% Phos. Control C0%=Average Coumarin emission signal of the 0% Phos. Control F100%=Average Fluorescein emission signal of the 100% Phos. Control F0%=Average Fluorescein emission signal of the 0% Phos. Control Graphing Software
# SelectScreen® Kinase Profiling Service uses XLfit from IDBS. The dose response curve is curve fit to model number 205 (sigmoidal dose-response model).
# T1 sequence (Q9HBH9 whole entry): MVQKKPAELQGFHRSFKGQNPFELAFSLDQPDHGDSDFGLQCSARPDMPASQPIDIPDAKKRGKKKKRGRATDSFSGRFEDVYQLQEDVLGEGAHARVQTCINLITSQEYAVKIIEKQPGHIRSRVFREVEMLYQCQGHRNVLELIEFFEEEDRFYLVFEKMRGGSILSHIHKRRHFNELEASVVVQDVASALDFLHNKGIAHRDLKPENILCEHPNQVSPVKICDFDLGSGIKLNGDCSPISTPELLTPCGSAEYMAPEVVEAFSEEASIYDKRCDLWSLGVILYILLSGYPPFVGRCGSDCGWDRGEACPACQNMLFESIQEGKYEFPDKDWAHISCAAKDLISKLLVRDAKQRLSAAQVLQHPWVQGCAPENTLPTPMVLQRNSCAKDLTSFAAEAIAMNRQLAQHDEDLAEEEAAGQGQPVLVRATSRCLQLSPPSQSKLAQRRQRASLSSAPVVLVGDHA
IC50 (MNK2a),IC50 (MNK1a),inhibition at 1 µM (MNK1a),SMILES
1 nM,18 nM,,CO[C@@H]1CO[C@H]2[C@@H]1OC[C@H]2Oc1cc(F)ccc1Nc1ncnc2cc(N=S(C)(C)=O)cc(OC(F)F)c12 [Example 1.24]
48 nM,,66%,CS(C)(=O)=Nc1cc(OC2CC2)c2c(Nc3ccc(F)cc3O[C@H]3CCOC3)ncnc2c1 [Example 1.25]
2 nM,,100%,O=S1(=Nc2cc(Cl)c3c(Nc4ccc(F)cc4O[C@H]4CCOC4)ncnc3c2)CCC1 [Example 1.26]
1 nM,11 nM,,O=S1(=Nc2cc(Cl)c3c(Nc4ccc(F)cc4O[C@@H]4CO[C@@H]5CCO[C@@H]54)ncnc3c2)CCC1 [Example 1.27]
4 nM,,89%,Cc1cc(N=S(C)(C)=O)cc2ncnc(Nc3ccc(F)cc3OC3(C)CC3)c12 [Example 1.28]
2 nM,,92%,Cc1cc(N=S(C)(C)=O)cc2ncnc(Nc3ccc(F)cc3OC3(C)CCC3)c12 [Example 1.29]
2 nM,,89%,Cc1cc(N=S(C)(C)=O)cc2ncnc(Nc3ccc(F)cc3OC3(C(F)(F)F)CCC3)c12 [Example 1.30]
13 nM,,87%,Cc1cc(N=S(C)(C)=O)cc2ncnc(Nc3ccc(F)cc3OC3(C)COC3)c12 [Example 1.31]
7 nM,149 nM,,Cc1cc(N=S(C)(C)=O)cc2ncnc(Nc3ccc(F)cc3OC3(C)CCOC3)c12 (stereo not shown) [Example 1.32]
2 nM,110 nM,,Cc1cc(N=S(C)(C)=O)cc2ncnc(Nc3ccc(F)cc3OC3(C)CC3C)c12 (stereo not shown) [Example 1.33]
5 nM,,85%,Cc1cc(N=S(C)(C)=O)cc2ncnc(Nc3ccc(F)cc3OC3CC(O)C3(C)C)c12 (stereo not shown) [Example 1.35]
2 nM,,84%,CO[C@@H]1CCC[C@H]1Oc1cc(F)ccc1Nc1ncnc2cc(N=S(C)(C)=O)cc(C)c12 [Example 1.36]
4 nM,28 nM,,Cc1cc(N=S(C)(C)=O)cc2ncnc(Nc3cccnc3O[C@H]3CCCNC3)c12 [Example 1.37]
12 nM,,99%,Cc1cc(N=S(C)(C)=O)cc2ncnc(Nc3ccc(C#N)nc3OC3CCOCC3)c12 [Example 1.38]
3 nM,,94%,Cc1cc(N=S(C)(C)=O)cc2ncnc(Nc3ccc(F)nc3O[C@H]3CCOC3)c12 [Example 1.40]
3 nM,74 nM,,Cc1cc(N=S(C)(C)=O)cc2ncnc(Nc3ccc(Cl)nc3O[C@H]3CCOC3)c12 [Example 1.41]

IC50 (MNK2a),IC50 (MNK1a),inhibition at 1 µM (MNK1a),SMILES
1 nM,11 nM,,COc1cc(N=S(C)(C)=O)cc2ncnc(Nc3ccc(F)cc3O[C@@H]3CO[C@H]4[C@@H]3OC[C@H]4OC)c12 [Example 2.1]
4 nM,,95%,Cc1cc(N=S2(=O)CCOCC2)cc2ncnc(Nc3ccc(F)cc3O[C@@H]3CO[C@H]4[C@@H]3OC[C@H]4O)c12 [Example 2.2]
5 nM,,89%,Cc1cc(N=S2(=O)CCOCC2)cc2ncnc(Nc3ccc(F)cc3O[C@H]3CCOC3)c12 [Example 2.3]
4 nM,,97%,Cc1cc(N=S2(=O)CCCC2)cc2ncnc(Nc3cccnc3O[C@@H]3CO[C@H]4[C@@H]3OC[C@H]4O)c12 [Example 2.4]
4 nM,,92%,Cc1cc(N=S(C)(C)=O)cc2ncnc(Nc3cccnc3OC3CCOCC3)c12 [Example 2.6]
1 nM,,98%,CCO[C@@H]1CO[C@H]2[C@@H]1OC[C@H]2Oc1cc(F)ccc1Nc1ncnc2cc(N=S(C)(C)=O)cc(C)c12 [Example 2.7]
44 nM,,64%,Cc1cc(N=S2(=O)CCCC2)cc2ncnc(Nc3ccsc3O[C@@H]3CCOC3)c12 [Example 2.8]
4 nM,,92%,Cc1cc(N=S(C)(C)=O)cc2ncnc(Nc3cccnc3O[C@H]3CC[C@H](NC(=O)OC(C)(C)C)CC3)c12 [Example 2.10]
6 nM,,92%,Cc1cc(N=S(C)(=O)c2ccccn2)cc2ncnc(Nc3ccc(F)cc3O[C@@H]3CO[C@@H]4CCO[C@@H]43)c12 (stereo partly shown) [Example 2.11]
13 nM,,24%,CCS(=O)(CC)=Nc1cc(C)c2c(Nc3ccc(F)cc3O[C@H]3CC[C@H](OC)CC3)ncnc2c1 [Example 2.12]
39 nM,,73%,CC(C)(C)OC(=O)N1CCC[C@@H](Oc2cc(F)ccc2Nc2ncnc3cc(N=S(C)(C)=O)cc(F)c23)C1 [Example 2.13]
9 nM,,52%,CO[C@H]1CC[C@H](Oc2cc(F)ccc2Nc2ncnc3cc(N=S4(=O)CCN(C(=O)OC(C)(C)C)CC4)cc(C)c23)CC1 [Example 2.14]
7 nM,,72%,CC(C)(C)OC(=O)N[C@H]1CC[C@H](Oc2ncccc2Nc2ncnc3cc(N=S(C)(C)=O)cc(F)c23)CC1 [Example 2.15]
10 nM,,94%,Cc1cc(N=S(C)(C)=O)cc2ncnc(Nc3ccc(C(N)=O)cc3OC3CCOCC3)c12 [Example 2.16]
4 nM,,91%,CO[C@H]1CC[C@H](Oc2cc(F)ccc2Nc2ncnc3cc(N=S4(=O)CCOCC4)cc(C)c23)CC1 [Example 2.17]
52 nM,,66%,Cc1cc(N=S(C)(C)=O)cc2ncnc(Nc3cccnc3O[C@@H]3CCCN(C(=O)OC(C)(C)C)C3)c12 [Example 2.23]
